Source: article PMC11609934, “Exploration and characterization of the antimalarial activity of cyclopropyl carboxamides that target the mitochondrial protein, cytochrome b” (European Journal of Medicinal Chemistry, 2024)
Converted amounts (≈) assume the structure as drawn.

Assays:
[1] = test system: P. berghei ANKA parasites; test: P. berghei 4-day mouse model; assay type: in vivo, Plasmodium berghei; conditions: for % parasitemia / % reduction in parasitemia: mice, day 4, oral gavage q.d. x4, 50 mg/kg (ART 30 mg/kg); for % reduction in parasitemia: versus vehicle control
Protocol: The 4-day P. berghei mouse model is used to determine the preliminary in vivo efficacy of antimalarials at an early stage of optimization. To determine if cyclopropyl carboxamide series could reduce asexual blood stage infection, we evaluated representative compounds WJM280 (108) and analog 109 in the 4-day P. berghei mouse model. In this model, mice were infected P. berghei asexual stage parasites, and then 2 h after the infection, WJM280 (108) and analog 109 at 50 mg/kg and artesunate at 30 mg/kg were administered by oral gavage. The same compound doses were administered again, 24, 48, and 72 h post infection. Parasitemia was then quantified by preparing blood smears and visualizing by microscopy across days 2, 3, and 4. […] The inability of these compounds to reduce parasitemia was attributed to their high metabolic turnover, which is a characteristic that needs improving on further development of the cyclopropyl carboxamide class.
P. berghei 4-day Mouse Model. This model was conducted as previously described.

[2] = Human liver microsome stability; assay type: in vitro ADME; conditions: pooled human liver microsomes
Protocol: Human Liver Microsome Stability. A solution of the test compounds in phosphate buffer solution (1 μM) was incubated in pooled human liver microsomes (0.5 mg/mL) for 0, 5, 20, 30, 45 and 60 min at 37 °C in the presence and absence of NADPH regeneration system. The reaction was terminated with the addition of ice-cold acetonitrile containing system suitability standard at designated time points. […] The experiment was carried out in duplicate. Verapamil, diltiazem, phenacetin, and imipramine were used as reference standards.

[3] = Human HepG2 growth inhibition assay (Cell TitreGlo, 48 h); assay type: cell-based; conditions: human, HepG2 cells, HepG2 cell growth inhibition over 48 h
Protocol: To establish the SAR, synthesized analogs were assessed against the asexual stage parasite (72 h) using LDH as a proxy for parasite growth inhibition. Cytotoxicity was monitored against the human HepG2 cell line using Cell TitreGlo as a metabolic marker for cell growth. Cyt b inhibitors typically have high lipophilicity, and so calculated physicochemical properties were determined, while in vitro ADME was also collected on representative analogs to gauge their suitability for efficacy studies in a 4-day P. berghei model.
Human HepG2 Growth Inhibition Assay. This is a routine assay undertaken at the Walter and Eliza Hall Institute and the method has been previously published. HepG2 cells were cultured in Dulbeccos modified eagles medium (DMEM) supplemented with 10 % fetal calf serum (FCS), in a humidified incubator at 37 °C and 5 % CO2. Assay plates (Greiner #781098, 384 well, white, tissue culture treated) were prepared by transferring appropriate volumes of 10 mM compound stocks using an Echo555 (Labcyte) such that the starting concentration was 50 μM, with a 1:2-fold dilution series. All wells were backfilled with DMSO to […] such that this remained constant (0.5 % DMSO). The positive growth control was 0.5 % DMSO and the negative growth control was 10 μM Bortezomib. HepG2 cells were seeded with 1000 cells in 50 μL DMEM with 10 % FCS into each well of the assay plates using a Multidrop Combi dispenser (Thermo Scientific). Plates were incubated at 37 °C and 5 % CO2 for 48 h. Cytotoxicity was determined using Cell Titer Glo (Promega) and calculated as a percentage using DMSO as the positive growth control and 10 μM Bortezomib as a negative growth control. EC50 values were calculated by Dotmatics 5.3 and Spotfire 7.11.1 software using a nonlinear regression four-parameter fit analysis. The equation used is sigmoidal dose response (variable slope), Y = bottom + (top − bottom)/(1 + 10((logEC50 − X) × Hill Slope)).

[4] = eLogD (shake-flask, pH 7.4); assay type: physicochemical; conditions: 1-octanol/phosphate buffered saline (1:1, v/v), Shake-flask method
Protocol: eLogD. The LogD (pH 7.4) assay was performed using a miniaturized shake flask method. A solution of a pre-saturated mixture of 1-octanol and phosphate buffered saline (PBS) (1:1, v/v) and the test compound (75 μM) was incubated at 25 °C with constant shaking (850 rpm) for 2 h. After incubation the organic and aqueous phases were separated, and samples of each phase transferred to plate for dilution. The organic phase was diluted to 1000-fold and the aqueous phase was diluted 20-fold. The samples were quantitated using LC-MS/MS. The experiment was carried out in duplicate. Propranolol, amitriptyline, and midazolam were used as reference standards.

[5] = Aqueous solubility (kinetic in PBS, pH 7.4); assay type: physicochemical; conditions: phosphate buffered saline
Protocol: Solubility. The solubility assay was performed using a miniaturized shake flask method. A solution of phosphate buffered saline (PBS) and the test compound (200 μM) was incubated at 25 °C with constant shaking (600 rpm) for 2 h. The samples were filtered using a multiscreen solubility filter plate. The filtrate was half diluted in acetonitrile. A five-point linearity curve was prepared in PBS:acetonitrile (1:1, v/v) at 200, 150, 75, 25 and 2.5 μM. Blank, linearity and test samples (n = 2) were transferred to a UV readable plate and the plate was scanned for absorbance. Best fit calibration curves were constructed using the calibration standards and used to determine the test sample solubility. The experiment was carried out in duplicate. Diethylstilbestrol, haloperidol, and diclofenac sodium were used as reference standards.

Rat hepatocyte stability = assay type: in vitro ADME; conditions: pooled rat hepatocytes
Protocol: Rat Hepatocyte Stability. A solution of the test compound in Krebs-Henseliet buffer solution (1 μM) was incubated in pooled rat hepatocytes (1 × 10^6 cells/mL) for 0, 15,30,45, 60, 75 and 90 min at 37 °C (5 % CO2, 95 % relative humidity). The reaction was terminated with the addition of ice-cold acetonitrile containing system suitability standard at designated time points. […] The experiment was carried out in duplicate. Diltiazem, 7-ethoxy coumarin, propranolol, and midazolam were used as reference standards.

[6] = test system: P. falciparum 3D7 parasites; test: P. falciparum 3D7 asexual stage LDH assay (72 h); assay type: cell-based, Plasmodium falciparum; conditions: Plasmodium falciparum, 3D7, 72 h, LDH activity of P. falciparum 3D7 parasites over 72 h; means and SDs, three or more experiments; read-out: Pf 3D7 EC50 (SD)
Protocol: To establish the SAR, synthesized analogs were assessed against the asexual stage parasite (72 h) using LDH as a proxy for parasite growth inhibition. Cytotoxicity was monitored against the human HepG2 cell line using Cell TitreGlo as a metabolic marker for cell growth.
P. falciparum 3D7 Asexual Stage LDH Assay. This is a platform assay is routinely undertaken at the Walter and Eliza Hall Institute and details on the protocol has been previously published. Briefly, 10-point dilution series of the compounds were prepared in 384 well assay plates using an Echo555 (Labcyte). Appropriate volumes of 10 mM compound stocks were transferred into the assay plates such that the starting concentration was 1 μM, with a 1 in 3-fold dilution series. All wells were backfilled with DMSO to 40 nL such that this remained constant (0.1 % DMSO). The positive growth control was 0.1 % DMSO and the negative growth control was 100 nM chloroquine. The parasite inoculum (40 μL) was dispensed into plates containing compounds using a Multidrop Combi dispenser (Thermo Scientific). […] Following 72 h growth, plates were sealed with parafilm and frozen at −80 °C overnight. Plates were thawed at room temperature for at least 4 h prior to LDH activity being measured. […] Plates were shaken to ensure mixing and absorbance at 650 nm was measured in an EnVision (PerkinElmer) plate reader after 30 min of incubation at room temperature. […] The equation used is sigmoidal dose response (variable slope), Y = bottom + (top − bottom)/(1 + 10((logEC50 − X) × Hill Slope)).

female gamete = test: Dual gamete formation assay, female gametes; assay type: cell-based; conditions: Plasmodium falciparum; NF54 parasites in a DGFA, 4 replicates
Protocol: (§1) To determine whether the cyclopropyl carboxamide class has transmission blocking potential we profiled selected analogs in a dual gamete formation assay. In this assay, stage V gametocytes are treated with compound, and gametogenesis is induced by the addition of xanthurenic acid. Male gamete viability is determined by an imaging algorithm measuring motile flagellation, while female viability is measured using an antibody to the female-specific Pfs25 surface marker. […] Collectively, the activity observed against male gametes is consistent with activity observed with other cyt b inhibitors.
(§2) Dual Gamete Formation Assay. Compounds were evaluated as previously described as a platform run at both Imperial College London and the London School of Hygiene and Tropical Medicine. Briefly, mature stage V gametocytes were exposed to compounds for 48 h at 37 °C in 384 well plates in gametocyte culture medium (RPMI 1640 supplemented with 25 mM HEPES, 50 μg/mL hypoxanthine, 4.8 g/L NaHCO3, 2 mM L-glutamine, 5 % pooled type AB serum, 0.5 % Albumax II (Gibco)) under a 1 % O2/3 % CO2/96 % N2 environment. Gametogenesis was then triggered by the addition of 10 μL ookinete medium (gametocyte culture medium supplemented with 100 μM xanthurenic acid and 0.27 μg/mL Cy3-labelled anti-Pfs25 antibody) to each well at room temperature. Plates were then cooled on a metal block at 4 °C for 4 min to ensure even cooling and then stabilized for a further 4 min at 28 °C. At 20 min post-induction, male gametogenesis was recorded in each well by automated brightfield microscopy using a × 4 objective lens and 1.5 × magnifier ( × 6 effective magnification). Afterward, plates were incubated in the dark at room temperature for 24 h and then female gametogenesis recorded in each well by automated fluorescence microscopy (anti-Pfs25-positive cells). […] All data was evaluated in comparison to the positive and negative controls to calculate percentage inhibition of male and female gametocytes, and dose response analysis and EC50 calculation performed using GraphPad Prism.

male gamete = test: Dual gamete formation assay, male gametes; assay type: cell-based; conditions: Plasmodium falciparum; NF54 parasites in a DGFA, 4 replicates
Protocol: as §1, §2

Compound	% parasitemia [1] [%]	% reduction in parasitemia [1] [%]	microsomal CLint at 1 h, 1 µM [2] [µL/min/mg]	CC50 at 48 h [3] [nM]	logD at 2 h [4]	solubility at 2 h [5] [µM]	hepatocyte CLint at 1 μM (Rat hepatocyte stability) [µL/min/1e6 cells]	EC50 [6] [nM]	body weights of mice ([1]; 50 mg/kg q.d. oral, 4 days)	hepatocyte CLint at 1.5 h, 1 µM (Rat hepatocyte stability) [µL/min/1e6 cells]	EC50 (female gamete) [nM]	EC50 (male gamete) [nM]
C[C@H]1[C@H](OC(=O)CCC(=O)O)O[C@@H]2O[C@@]3(C)CC[C@H]4[C@H](C)CC[C@@H]1[C@@]24OO3 [ART, artesunate, reference compound]	2.3	97.7	–	–	–	–	–	–	–	–	–	–
O=C(NC1CC1)c1ccc(CN(Cc2ccccc2)C2CC2)cc1 [Compound 17, 4-((Benzyl(cyclopropyl)amino)methyl)-N-cyclopropylbenzamide]	–	–	72	> 40000	4	44 (≈ 14.1 µg/mL)	> 92	140	–	–	–	–
CC(C)N(Cc1ccccc1)Cc1ccc(C(=O)NC2CC2)cc1 [Compound 21, 4-((Benzyl(isopropyl)amino)methyl)-N-cyclopropylbenzamide]	–	–	76	> 40000	3.5	140 (≈ 45.1 µg/mL)	> 92	160	–	–	–	–
O=C(NC1CC1)c1ccc(CN(Cc2ccccc2)C2CCC2)cc1 [Compound 22, 4-((Benzyl(cyclobutyl)amino)methyl)-N-cyclopropylbenzamide]	–	–	151	> 40000	3.8	92 (≈ 30.8 µg/mL)	> 92	160	–	–	–	–
O=C(NC1CC1)c1ccc(CN(Cc2ccccc2)CC(F)(F)F)cc1 [Compound 25, 4-((Benzyl(2,2,2-trifluoroethyl)amino)methyl)-N-cyclopropylbenzamide]	–	–	79	> 40000	4.8	11 (≈ 3.99 µg/mL)	> 92	260	–	–	–	–
CCCN(Cc1ccccc1)Cc1ccc(C(=O)NC2CC2)cc1 [Compound 26, 4-((Benzyl(propyl)amino)methyl)-N-cyclopropylbenzamide]	–	–	98	> 40000	3.7	83 (≈ 26.8 µg/mL)	> 92	130	–	–	–	–
CC(c1ccccc1)N(Cc1ccc(C(=O)NC2CC2)cc1)C1CC1 (stereo not shown) [Compound 97, N-Cyclopropyl-4-((cyclopropyl(1-phenylethyl)amino)methyl)benzamide]	–	–	238	> 40000	4.2	22 (≈ 7.36 µg/mL)	> 92	170	–	–	–	–
O=C(NC1CC1)c1ccc(CN(Cc2ccccc2)C2CC2)nc1 [Compound 104, 6-((Benzyl(cyclopropyl)amino)methyl)-N-cyclopropylnicotinamide]	–	–	–	> 40000	–	–	–	3500	–	–	–	–
O=C(NC1CC1)c1cnc(CN(Cc2ccccc2)C2CC2)s1 [Compound 105, 2-((Benzyl(cyclopropyl)amino)methyl)-N-cyclopropylthiazole-5-carboxamide]	–	–	–	> 40000	–	–	–	2400	–	–	–	–
CCCN(Cc1ccc(C(=O)NC2CC2)cc1)Cc1cc(C(F)(F)F)cc(C(F)(F)F)c1 [Compound 109, 4-(((3,5-Bis(trifluoromethyl)benzyl) (propyl)amino)methyl)-N-cyclopropylbenzamide]	91	9	65	10000	5	2.5 (≈ 1.15 µg/mL)	–	30	slightly reduced	60	–	–
CCCN(Cc1ccc(C(=O)NC2CC2)cc1)Cc1c(C)cc(C)cc1C [Compound 110, N-Cyclopropyl-4-((propyl(2,4,6-trimethylbenzyl)amino)methyl)benzamide]	–	–	–	> 40000	–	–	–	80	–	–	> 25000	280
